Measured values from publication PMC10300873, “Characterization of Polyphenols from Chenopodium botrys after Fractionation with Different Solvents and Study of Their In Vitro Biological Activity” (Molecules, 2023).

Test system: T1, trypsin
T1 construct: gene PRSS1
Experiment: antitryptic activity: albumin digestion, perchloric acid precipitation, A280
Assay type: biochemical
Settings: human albumin (4% v/v) as substrate, Tris-HCl pH 7.4, 37 °C, 5 min preincubation, 20 min reaction
Text: antitryptic activity: albumin digestion, perchloric acid precipitation, A280 on trypsin

**Q.** How did the “ATA / IC50 ± SD” value turn out when `CC(C)Cc1ccc(C(C)C(=O)O)cc1` (stereo not shown) [ibuprofen] was run?
**A.** Its value is 259.82 ± 9.14 µg/mL.
